Laboratory results: patent US9168278B2, “Use for cannabinoid” (GW Pharma Limited, priority 2004, dated 2015)
Where two headings read alike, the source gives them in different places.

What was measured:
[1] = system: mouse isolated vas deferens (P2 receptor agonist β,γ-methylene-ATP); test: Contractile responses of the vas deferens to β,γ-methylene-ATP; details: for contractions induced by β,γ-methylene-ATP: at 1 μM
Method: (§1) Vasa deferentia were obtained from albino MF1 mice weighing 31 to 59 g. The tissues were mounted vertically in 4 ml organ baths. They were then subjected to electrical stimulation of progressively greater intensity followed by an equilibration procedure in which they were exposed to alternate periods of stimulation (2 min) and rest (10 min) until contractions with consistent amplitudes were obtained (Thomas et al., 2004). These contractions were monophasic and isometric and were evoked by 0.5 s trains of pulses of 110% maximal voltage (train frequency 0.1 Hz; pulse frequency 5 Hz; pulse duration 0.5 ms).
In experiments with β,γ-methylene-ATP, no electrical stimuli were applied after the equilibration procedure. Log concentration-response curves of β,γ-methylene-ATP were constructed cumulatively without washout. THCV, WIN or drug vehicle were added 30 min before the first addition of β,γ-methylene-ATP, each subsequent addition of which was made immediately after the effect of the previous dose had reached a plateau (dose cycles of 1 to 2 min).
(§2) Inhibition of the electrically-evoked twitch response of the vas deferens has been expressed in percentage terms and this has been calculated by comparing the amplitude of the twitch response after each addition of a twitch inhibitor with its amplitude immediately before the first addition of the inhibitor. Contractile responses to phenylephrine and β,γ-methylene-ATP have been expressed as increases in tension (g).

[2] = system: mouse isolated vas deferens; test: Electrically-evoked contractions of the mouse isolated vas deferens
Method: Experiments were also carried out with the mouse isolated vas deferens, a tissue in which cannabinoid receptor agonists such as R-(+)-WIN55212, CP55940, THC and 2-arachidonoyl ethanolamide (anandamide) can inhibit electrically-evoked contractions (Devane et al., 1992; Pertwee et al., 1995).
Cannabinoid receptor agonists are thought to inhibit the electrically evoked contractions by acting on prejunctional neuronal cannabinoid CB1 receptors to inhibit release of the contractile neurotransmitters, ATP, (acting on postjunctional P2X purinoceptors), and noradrenaline, (acting on postjunctional α1-adrenoceptors), (Trendelenberg et al., 2000).
as §1
Except in experiments with phenylephrine, all drug additions were made to the organ baths after the equilibration period and there was no washout between these additions. In most experiments there was an initial application of a potential antagonist or its vehicle. This was followed 28 min later by a 2 min period of electrical stimulation at the end of which the lowest of a series of concentrations of the twitch inhibitors, R-(+)-WIN55212, CP55940, THC, anandamide, (−)-7-hydroxy-cannabidiol-dimethylheptyl or clonidine, was applied.
After a period of rest, the tissues were electrically stimulated for 2 min and then subjected to a further addition of twitch inhibitor.
This cycle of drug addition, rest and 2 min stimulation was repeated so as to construct cumulative concentration-response curves. Only one concentration-response curve was constructed per tissue. Rest periods were 3 min for clonidine, 13 min for R-(+)-WIN55212, CP55940 and anandamide, 28 min for THC and THCV, and 58 min for (−)-7-hydroxy-cannabidiol-dimethylheptyl.
Experiments were also performed with capsaicin. This drug was added at intervals of 3 min and the tissues were not rested from electrical stimulation between these additions.
In some experiments, cumulative concentration-response curves for THCV were constructed without prior addition of any other compound, again using a cycle of drug addition, 28 min rest and 2 min stimulation.
as §2
Values for EC50, for maximal effect (Emax) and for the s.e.mean or 95% confidence limits of these values have been calculated by nonlinear regression analysis using the equation for a sigmoid concentration-response curve (GraphPad Prism).
(§3) The apparent dissociation constant (KB) values for antagonism of agonists by THCV in the vas deferens or [^35S]GTPγS binding assay have been calculated by Schild analysis from the concentration ratio, defined as the concentration of an agonist that elicits a response of a particular size in the presence of a competitive reversible antagonist at a concentration, B, divided by the concentration of the same agonist that produces an identical response in the absence of the antagonist.
Mean values have been compared using Student's two-tailed t-test for unpaired data or one-way analysis of variance (ANOVA) followed by Dunnett's test (GraphPad Prism). […]

[3] = system: mouse isolated vas deferens (α1-adrenoceptor agonist phenylephrine hydrochloride); test: Contractile responses of the vas deferens to phenylephrine; details: for contractions induced by phenylephrine: at 1 μM
Method: as §1
Only one addition of phenylephrine was made to each tissue and this was carried out 30 min after the addition of THCV, WIN or drug vehicle.
as §2

[4] = target: T1, hCB2 receptors (CHO cells transfected with hCB2) (Homo sapiens, UniProt P34972); test: Radioligand displacement assay, CHO-hCB2 cell membranes; details: Cheng & Prusoff, read-out: mean Ki, displacement of [3H]CP55940 from specific binding sites
T1 construct: expressed in transfected cells; host or cells: CHO cells

[5] = target: T2, transfected cannabinoid CB2 receptors (CHO-hCB2 cell membranes) (Homo sapiens, UniProt P34972); test: [35S]GTPγS binding assay, CHO-hCB2 cell membranes; type: biochemical
T2 construct: expressed in transfected cells; host or cells: CHO cells
Method: The conditions used for measuring agonist-stimulated [^35S]GTPγS binding to transfected cannabinoid CB2 receptors were adapted from those used by MacLennan et al. (1998) and Griffin et al. (1999).
(§4) The assays were carried out with GTPγS binding buffer (50 mM Tris-HCl; 50 mM Tris-Base; 5 mM MgCl2; 1 mM EDTA; 100 mM NaCl; 1 mM DTT; 0.1% BSA) in the presence of [^35S]GTPγS and GDP, in a final volume of 500 μl. Binding was initiated by the addition of [^35S]GTPγS to the tubes. Nonspecific binding was measured in the presence of 30 μM GTPγS.
(§5) The drugs were incubated in the assay for 60 min at 30° C. The reaction was terminated by a rapid vacuum filtration method using Tris buffer (50 mM Tris-HCl; 50 mM Tris-Base; 0.1% BSA), and the radioactivity was quantified by liquid scintillation spectrometry.
The concentrations of [^35S]GTPγS and GDP present in the assay varied depending on whether the assay was conducted with mouse brain or transfected cell membranes. […]
Net agonist-stimulated [^35S]GTPγS binding values were calculated by subtracting basal binding values (obtained in the absence of agonist) from agonist-stimulated values (obtained in the presence of agonist) as detailed elsewhere (Ross et al., 1999a). […]

[6] = target: T3, cannabinoid CB1 receptors (mouse brain membranes) (Mus musculus, UniProt P47746); test: [35S]GTPγS binding assay, mouse brain membranes; type: biochemical; details: for Kb: Mean apparent KB, brain membranes, THCV 1000 nM
T3 construct: membranes prepared from healthy brain tissue, which is densely populated with CB1 but not CB2 receptors; from tissue; host or cells: mouse brain membranes
Method: as §4, §5
The concentrations of [^35S]GTPγS and GDP present in the assay varied depending on whether the assay was conducted with mouse brain or transfected cell membranes.
Additionally, mouse brain membranes were preincubated for 30 minutes at 30° C. with 0.5 U ml^−1 adenosine deaminase to remove endogenous adenosine. Agonists and antagonists were stored as a stock solution of 1 or 10 mM in DMSO, the vehicle concentration in all assay tubes being 0.11% DMSO.
as §3
Mean values have been compared using Student's two-tailed t-test for unpaired data or one-way analysis of variance (ANOVA) followed by Dunnett's test (GraphPad Prism). A P-value <0.05 was considered to be significant.

[7] = target: T4, CB1 receptors (mouse brain membranes) (Mus musculus, UniProt P47746); test: Radioligand displacement assay, mouse brain membranes; type: binding
T4 construct: membranes prepared from healthy brain tissue, which is densely populated with CB1 but not CB2 receptors; from tissue; host or cells: mouse brain membranes
Method: Experiments were performed with membranes prepared from healthy brain tissue, which is densely populated with CB1 but not CB2 receptors (reviewed in Howlett et al. 2002).
Binding was initiated by the addition of either the brain membranes (33 μg protein per tube) or the transfected hCB2 cells (25 μg protein per tube).
All assays were performed at 37° C. for 60 min before termination by addition of ice-cold wash buffer (50 mM Tris buffer, 1 mg ml^−1 bovine serum albumin, pH 7.4) and vacuum filtration using a 24-well sampling manifold and GF/B filters that had been soaked in wash buffer at 4° C. for at least 24 h.
Each reaction tube was washed six times with a 1.2 ml aliquot of wash buffer. The filters were oven-dried for 60 min and then placed in 5 ml of scintillation fluid. Radioactivity was quantified by liquid scintillation spectrometry.
Specific binding was defined as the difference between the binding that occurred in the presence and absence of 1 μM unlabelled CP55940. THCV was stored as a stock solution of 10 mM in DMSO, the vehicle concentration in all assay tubes being 0.1% DMSO.
Values are expressed as means and variability as s.e.mean or as 95% confidence limits. […] Its dissociation constant (Ki value) was calculated using the equation of Cheng & Prusoff (1973).

T4 sequence (P47746 whole entry): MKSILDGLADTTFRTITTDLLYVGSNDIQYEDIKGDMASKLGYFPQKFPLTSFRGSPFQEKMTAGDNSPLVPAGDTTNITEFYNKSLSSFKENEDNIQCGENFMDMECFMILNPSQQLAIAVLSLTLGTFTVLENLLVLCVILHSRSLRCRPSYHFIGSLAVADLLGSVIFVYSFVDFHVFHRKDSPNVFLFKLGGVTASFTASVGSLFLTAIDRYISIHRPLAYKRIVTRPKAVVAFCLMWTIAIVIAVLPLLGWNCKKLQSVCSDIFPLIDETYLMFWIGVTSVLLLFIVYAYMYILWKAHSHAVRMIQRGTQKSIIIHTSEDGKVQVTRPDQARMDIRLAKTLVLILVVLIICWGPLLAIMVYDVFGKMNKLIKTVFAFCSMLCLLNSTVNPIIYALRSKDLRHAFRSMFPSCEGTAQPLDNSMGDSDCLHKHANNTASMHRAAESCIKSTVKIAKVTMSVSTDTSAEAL
T3 sequence (P47746 whole entry): as above
T2 sequence (P34972 whole entry): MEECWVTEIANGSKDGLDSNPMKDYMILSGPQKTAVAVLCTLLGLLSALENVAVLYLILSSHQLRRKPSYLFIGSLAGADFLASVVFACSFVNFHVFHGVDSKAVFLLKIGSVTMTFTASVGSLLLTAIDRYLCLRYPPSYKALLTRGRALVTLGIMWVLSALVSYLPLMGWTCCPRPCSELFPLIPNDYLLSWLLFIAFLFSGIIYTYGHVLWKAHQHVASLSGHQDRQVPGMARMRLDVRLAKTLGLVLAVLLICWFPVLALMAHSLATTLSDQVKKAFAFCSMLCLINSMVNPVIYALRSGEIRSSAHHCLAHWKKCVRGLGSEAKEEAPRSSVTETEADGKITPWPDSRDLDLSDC
T1 sequence (P34972 whole entry): as above

Cc1c(C(=O)c2cccc3ccccc23)c2cccc3c2n1[C@H](CN1CCOCC1)CO3 [R-(+)-WIN55212, reference compound]
contractions induced by β,γ-methylene-ATP [1]: did not decrease
inhibition of electrically-evoked contractions ([2]; at 1 μM): markedly attenuated
contractions induced by phenylephrine [3]: did not decrease

CCCc1cc(O)c2c(c1)OC(C)(C)[C@@H]1CCC(C)=C[C@@H]21 [THCV, tetrahydrocannabivarin]
contractions induced by β,γ-methylene-ATP [1]: did not induce any significant reduction
contractile responses to β,γ-methylene-ATP ([1]; at 31.6 μM): attenuated
Kb ([2]; Mus musculus, twitch inhibitor 7-OH-CBD-DMH, THCV 100 nM, read-out: Mean apparent KB of THCV): > 100 nM
Kb ([2]; Mus musculus, twitch inhibitor CP55940, THCV 100 nM, read-out: Mean apparent KB of THCV): 10.3 nM
Kb ([2]; Mus musculus, twitch inhibitor R-(+)-WIN55212, THCV 10-1000 nM, Tallarida method, read-out: Mean apparent KB of THCV): 1.5 nM
Kb ([2]; Mus musculus, twitch inhibitor THC, THCV 1000 nM, read-out: Mean apparent KB of THCV): 96.7 nM
Kb ([2]; Mus musculus, twitch inhibitor anandamide, THCV 10 nM, read-out: mean apparent KB for antagonism of anandamide): 1.4 nM
Kb ([2]; Mus musculus, twitch inhibitor anandamide, THCV 100 nM, read-out: Mean apparent KB of THCV): 1.2 nM
Kb ([2]; Mus musculus, twitch inhibitor capsaicin, THCV 100 nM, read-out: Mean apparent KB of THCV): > 100 nM
Kb ([2]; Mus musculus, twitch inhibitor clonidine, THCV 100 nM, read-out: Mean apparent KB of THCV): > 100 nM
Kb ([2]; Mus musculus, twitch inhibitor methanandamide, THCV 100 nM, read-out: Mean apparent KB of THCV): 4.6 nM
EC50 ([2]; Mus musculus, compound alone, read-out: EC50, inhibition of electrically-evoked contractions): 12700 nM
inhibition of electrically-evoked contractions in presence of SR141716A ([2]; SR141716A 100 nM, n=7): not attenuated
concentration above which electrically-evoked contractions were inhibited ([2]; SR141716A-independent manner): above 3 μM
antagonism of THC-induced twitch inhibition ([2]; THCV 100 nM, n=11): Nor did 100 nM THCV antagonize
inhibition of electrically-evoked contractions ([2]; at 1 μM): no detectable inhibitory effect
inhibition of electrically-evoked contractions ([2]; at 31.6 μM): marked inhibition
Ki [4]: 62.8 nM
Kb [5]: 10.1 nM
effect by itself on [35S]GTPγS binding ([5]; CHO-hCB2 cell membranes, at antagonist concentrations): did not affect
contractions induced by phenylephrine [3]: did not induce any significant reduction
contractile responses to phenylephrine hydrochloride ([3]; at 31.6 μM): attenuated
Kb ([6]; agonist CP55940, SR141716A 10 nM): 93.1 nM
Kb ([6]; agonist R-(+)-WIN55212): 85.4 nM
effect by itself on [35S]GTPγS binding ([6]; mouse brain membranes, at antagonist concentrations): did not affect
EC50 ([7]; EC50, displacement of [3H]CP55940, mouse brain membranes, n=4 to 8): 98.2 nM
EC50 ([7]; mean EC50, displacement of [3H]R-(+)-WIN55212, mouse brain membranes, n=4 to 7): 61.3 nM
EC50 ([7]; mean EC50, displacement of [3H]SR141716A, mouse brain membranes, n=4 to 6): 86.8 nM
Ki ([7]; mouse brain membranes, Cheng & Prusoff, read-out: mean Ki, displacement of [3H]CP55940 from specific binding sites): 75.4 nM
